# Measurements taken from patent US12558329B2 (New York University, priority 2021, dated 2026).
# Entries after “also recorded” stand apart in the source; their conditions may differ. Peptide text beside a SMILES is read from it. * marks the point of attachment. Cbz = O=C(OCc1ccccc1)*
# Experiments:
# [1] = test system: MIAPACA2 cells; test: 18O2-GASSP labelling of MIAPACA2 cells treated with MG132, IOX1, DFO or ascorbate; assay type: cell-based, human
# Protocol: As additional controls, MIAPACA2 cells were treated with an iron chelator (DFO, FIG. 5E-5F), a proteasome inhibitor (MG132) to induce proteotoxic stress, and physiological levels of ascorbate, an antioxidant, to determine the effects of ROS on ^18O-labelling. Labelling of ^18O γ-butyrobetaine was blocked by IOX1 and DFO, consistent with the fact that trimethyllysine hydroxylase (TMLH) is an iron-dependent dioxygenase (FIGS. 7A-7D). […] Total levels of ^18O labelled methionine sulfoxide increased upon MG132 treatment and decreased following ascorbate treatment (FIGS. 7I-7M)^10.
# (§1) All steps involved in setting up labelling with ^18O2 were performed at room temperature and inside a chemical fume hood. The procedure may vary depending on the type and number of tissue culture plates in the chamber and the amount of media in the plates. Users must test the system by using ^16O2:CO2:N2 or other unlabelled gases to optimize conditions for their needs and avoid consumption of costly labelled gases. Cells were treated with or without 5 μM MG132, 500 μM IOX1, 250 μM DFO, or 70 μM ascorbate, before placing tissue culture plates into the modular incubator chamber (MIC) containing a wireless oxygen sensor and a 15 cm dish of water to maintain humidity. Next, the clamps were closed to form an air-tight seal between the lid and platform of the MIC. […] N2 flushing was repeated for a total of three times, or until the sensor in the chamber stabilized at 0% O2 for 10 minutes.
# Next, the inlet valve was opened and the ^18O2:5% CO2:N2 gaseous mixture was flushed into the system at a rate of 2.5 L/min. Subsequently, the outlet valve was immediately opened to allow gas flow out of the chamber, and to release the pressure in the system. The chamber was injected with the ^18O2:5% CO2:N2 gaseous mixture for 1 minute before the inlet and outlet valves were closed simultaneously. The chamber was allowed to equilibrate for 5 minutes. This process was repeated seven times, or until the desired oxygen concentration was reached and was stable. For 3%, 1%, and 0.2% ^18O2 labelling studies, the chamber was infused with 5%:5%:90%, 1.5%:5%:93.5%, and 0.5%:5%:94.5% ^18O2:CO2:N2, respectively. The ^18O2-infused MIC was then placed in a 37° C., 5% CO2 tissue culture incubator for 24 hours. The oxygen concentration in the chamber was monitored regularly. Oxygen measurements after 20 hours was not feasible due to the battery life of the sensor. At the end of the experiment, the chamber was opened inside a chemical fume hood before metabolite extraction.
# (§2) For metabolomics, briefly, cells were washed in 4° C. 0.9% saline and metabolites were extracted with 46% methanol:23% H2O:[…] chloroform that contained a labelled amino acid standard mix (MSK-A2-1.2, Cambridge Isotope Laboratories, Inc.). Enzymatic assay samples were extracted using 80% methanol: 20% H2O that contained labelled amino acid standards. Extracts were placed into 1.5 mL Eppendorf tubes, vortexed at 4° C. for 10 min and centrifuged at 4° C. for 10 min at 17,200×g in a microcentrifuge. The aqueous phase was transferred to vials for GC-MS or Eppendorf tubes for LC-MS. Polar samples were evaporated in a SpeedVac and samples were resolved by GC-MS or LC-MS. Lipid samples were dried using a stream of N2 (for ^18O labelling studies) or air. Metabolite and lipid extracts were submitted to the NYULMC Metabolomics Core Resource Laboratory.
# For polar metabolomics, the LC column was a Millipore ZIC-pHILIC (2.1×150 […], 5 μm bead size) coupled to a Dionex UltiMate 3000 system. The column oven temperature was held at 25° C. The flow rate was 100 μL/min, and the injection volume was 1 μL. Buffer A was 10 mM ammonium carbonate in water, pH 9, and Buffer B was neat acetonitrile. The gradient profile was 80-20% B (0-30 min), 20-80% B (30-31 min), and 80-80% B (31-42 min). MS Analyses were carried out on a Thermo Q Exactive HF mass spectrometer using a heated electrospray ionization (HESI) source. […]
# [2] = test system: human cells; test: 18O2-GASSP labelling of human cells, untargeted polar metabolomics, with or without IOX1; assay type: cell-based; conditions: 18O labelling of the metabolite in cells treated with IOX1 (dioxygenase inhibitor), 24 hours
# Protocol: To map the molecular fate of O2 in metabolic pathways in living cells, GASSP was used to carry out ^18O2 labelling in cell lines of different tissue origins at ^18O2 concentrations that represented physiological (3%), hypoxic (1%), and severely hypoxic (0.2%) oxygen tensions found in tissues and tumours^7. At the end of each run, polar metabolites were extracted and untargeted polar metabolomics using liquid chromatography-high resolution mass spectrometry (LC-MS) were carried out to identify metabolites labeled with ^18O.
# A list of unique features identified by untargeted metabolomics that were >0.25% (natural abundance of ^18O is 0.2%) labelled by ^18O atoms in each cell line at each oxygen tension was generated. In addition, background signal was controlled by requiring that ^18O labeled peaks had to have a signal that was two-fold greater than naturally occurring isotopes found in non-labelled (^16O) metabolite cell extracts. To determine the proportion of unique ^18O labelled features that were due to dioxygenase activity, cells were treated with a pan-dioxygenase inhibitor (IOX1) at concentrations that inhibit iron-dependent dioxygenases, such as the HIF1α prolyl hydroxylases (FIGS. 5E-5F) and identified ^18O labelled polar metabolites. This list of ^18O metabolites was generated by identifying all features in the unlabelled samples, filtering these features against blank samples to remove background peaks, and calculating the fractional ^18O labelling with the assumption that a metabolite would have no more than three oxygen atoms labelled, followed by manual curation of labelled features (FIG. 1B and FIG. 5G). […] These ^18O-labelled features were termed the oxy-metabolome.
# To determine the identities of the labeled metabolites, the list of ^18O labelled features was annotated to their corresponding unlabelled metabolites using retention time matching, tandem mass spectrometry (MS2) fragmentation patterns, and database searching.
# as §1
# [3] = test system: MIAPACA2 cells; test: 13C9-Tyr tracing in MIAPACA2 cells with the indicated reagents; assay type: cell-based, human
# From the text: 4-HMA biosynthesis has only been described in some bacteria and in rabbits. […] The production of 4-HPPA occurs in the first step of tyrosine (Tyr) catabolism via tyrosine transaminase (TAT). In rabbits, 4-HMA was proposed to be synthesized from the degradation of tyramine and octopamine by dopamine β-hydroxylase (Dbh) and monoamine oxidase (Mao) (FIG. 9A)^13. Tyramine is also a Tyr-derived metabolite. Therefore, all known substrates required to generate 4-HMA are derived from Tyr. In addition, Tyr can also be made from phenylalanine (Phe) by Phe hydroxylase (PAH) in mammalian liver cells^14. To elucidate the human 4-HMA biosynthetic pathway, the fates of ^13C9-Tyr and ^13C6-Phe were traced in human cells. […] Additionally, the generation of 4-HMA by […] would result in the incorporation of a single ^18O at the Ca position of the carboxylic acid of 4-HMA (FIG. 9A). However, this was not observed by ^18O labelling (FIG. 8B). Therefore, it was unlikely that 4-HMA biosynthesis from octopamine and tyramine catabolism occurred in the present system.
# Unexpectedly, 4-HMA levels also were lower in hyperoxic (21%) conditions compared to 3% O2, reflecting either decreased production or increased consumption of this metabolite at 21% O2.
# Therefore, CoQ10 was used as an indirect readout of 4-HB production. To assess the ability of human cells to biosynthesize CoQ10, cells were labelled with ^13C6-Phe or ^13C9-Tyr. CoQ10 was completely biosynthesized from Tyr, but not Phe, in human cells (FIG. 11B).
# as §2
# For polar metabolomics, the LC column was a Millipore ZIC-pHILIC (2.1×150 […], 5 μm bead size) coupled to a Dionex UltiMate 3000 system. The column oven temperature was held at 25° C. The flow rate was 100 μL/min, and the injection volume was 1 μL. Buffer A was 10 mM ammonium carbonate in water, pH 9, and Buffer B was neat acetonitrile. The gradient profile was 80-20% B (0-30 min), 20-80% B (30-31 min), and 80-80% B (31-42 min). MS Analyses were carried out on a Thermo Q Exactive HF mass spectrometer using a heated electrospray ionization (HESI) source. The method duration was 30 min using a polarity-switching, top 5 method. The spray voltage for both positive and negative ion modes was 3.5 kV. The capillary temperature was 320° C. with a maximum spray current of 100 ρA. The full MS scan was carried out at 120,000 resolution with a scan range of 67-1000 m/z. For ^18O2 labelling experiments, full MS scans were carried out at 240,000 resolution at the same scan range. Tandem MS spectra were obtained at 15,000 resolution. All data were acquired in profile mode. Peak heights were analyzed using Xcalibur (ThermoFisher Scientific).
# Lipid metabolomics were acquired using a Waters CSH-C18 (2.1×100 mm, 1.7 μm) column coupled to a Dionex UltiMate 3000 system. The column oven temperature was held at 55° C. The flow rate was 300 μL/min and the injection volume was 1 μL. Buffer A was 60:40 acetonitrile:water, 0.1% formic acid and Buffer B was 90:10 isopropanol:acetonitrile, 10 mM ammonium formate. […]
Structure (SMILES),IOX1 Sensitive (Yes/No) [2],also measured
CC(C)C[C@@H](C=O)NC(=O)[C@H](CC(C)C)NC(=O)[C@H](CC(C)C)NC(=O)OCc1ccccc1 [MG132] (Cbz-Leu-Leu-Leu-aldehyde),,"Total levels of 18O labelled methionine sulfoxide ([1]; 5 μM MG132, 70 μM ascorbate, 24 hours): increased"
"CSCC[C@H](N)C(=O)O [Metabolite 13, Methionine]",Yes,
"CC(=O)N[C@H]1C(O)O[C@H](CO)[C@@H](O)[C@@H]1O (stereo partly drawn) [Metabolite 16, N-Acetyl-D-glucosamine]",No,
"N[C@@H](CCC(=O)O)C(=O)O [Metabolite 33, Glutamate]",Yes,
"O=c1ccn([C@@H]2O[C@H](COP(=O)(O)O)[C@@H](O)[C@H]2O)c(=O)[nH]1 [Metabolite 36, UMP]",Yes,
"NC(=O)C1=CN([C@@H]2O[C@H](COP(=O)(O)OP(=O)(O)OC[C@H]3O[C@@H](n4cnc5c(N)ncnc54)[C@H](O)[C@@H]3O)[C@@H](O)[C@H]2O)C=CC1 [Metabolite 28, NADH]",Yes,
"NCCS(=O)O [Metabolite 32, Hypotaurine]",Yes,
"C[S+]([O-])CC[C@H](N)C(=O)O (some centres unmarked) [Metabolite 23, Methionine Sulfoxide]",Yes,
"C[N+](C)(C)CCCC(=O)[O-] [Metabolite 21, g-Butyrobetaine]",Yes,
"N[C@@H](CCSC[C@H](N)C(=O)O)C(=O)O [Metabolite 42, Cystathionine]",Yes,
"CC(=O)N(O)CCCCCNC(=O)CCC(=O)N(O)CCCCCNC(=O)CCC(=O)N(O)CCCCCN [DFO, N-[5-[[4-[5-[acetyl(hydroxy)amino]pentylamino]-4-oxobutanoyl]-hydroxyamino]pentyl]-N′-(5-aminopentyl)-N′-hydroxybutanediamide]",,"18O labelling of methionine ([1]; 3%, 1%, 0.2% 18O2, 24 hours): less sensitive; also recorded: only partially blocked; 18O labelling of γ-butyrobetaine ([1]; 3%, 1%, 0.2% 18O2, 24 hours): sensitive; also recorded: blocked; 18O labelling of 4-HMA ([1]; MIAPACA2, 3%, 1%, 0.2% 18O2, 24 hours, 500 μM IOX1, 250 μM DFO): sensitive; also recorded: significantly attenuated; 4-HMA levels ([1]; MIAPACA2, 18O2 labelling, 24 hours, 500 μM IOX1, 250 μM DFO, 70 μM ascorbate): significantly attenuated; 13C9-Tyr-derived 4-HMA ([3]; 3% 16O2, 24 hours): attenuated or ablated; also recorded: severely inhibited; CoQ10 labelling from 13C9-Tyr (incorporation of tyrosine into CoQ10) ([3]; 3% 16O2, 24 hours): eliminated; also recorded: completely blocked; 4-HPLA pools ([3]; 13C-Tyr, 3% O2, 24 hours): increased"
"O=C(O)[C@@H]1C[C@@H](O)CN1 [Metabolite 24, Hydroxyproline]",Yes,
"O=C[C@@H](O)[C@@H](O)[C@H](O)[C@H](O)COP(=O)(O)O [Metabolite 46, D-Mannose 6-phosphate]",Yes,
"CC(=O)N[C@@H](CO)[C@@H](O)[C@@H](O)[C@H](O)CO [Metabolite 17, N-Acetyl-D-galactosaminitol]",Yes,
"C[S+](CC[C@H](N)C(=O)[O-])C[C@H]1O[C@@H](n2cnc3c(N)ncnc32)[C@H](O)[C@@H]1O (some centres unmarked) [Metabolite 41, S-adenosyl methionine]",Yes,
"CCCCC(=O)O[C@H](CC(=O)[O-])C[N+](C)(C)C [Metabolite 4, Valerylcarnitine]",Yes,
"CN(CC(=O)O)C(=N)N [Metabolite 29, Creatine]",Yes,
